Among the test systems are ACHN renal; HT29 colon; UO-31 renal; MCF7 breast; IGROV1 ovarian; EKVX NSCLC; SK-MEL-5 melanoma; NCI-H522 lung; SNB-19 CNS; TK-10 renal.
Assay in all cases: DTP human tumour cell line panel, 48 h

“And” between values parts separate entries of the source, which are not always exact repeats. Identical values can stand only once.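 Method: 48-hour compound exposure of cells in 96-well plates, five concentrations, linear interpolation of endpoints. GI50 marks 50% less growth. TGI: concentration producing complete growth inhibition.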 Bounds are passed on as bounds.

What is called GI50 is the concentration giving 50% growth inhibition. As a reminder, the TGI is the concentration giving total growth inhibition. Low values mean more potent growth arrest, high ones less potent growth arrest. `COc1ccc(C(O)c2cc3c(N)c(C(=O)Nc4cccc(Br)c4)sc3nc2C)cc1` (stereo not drawn): the GI50 in the assay with ACHN renal was 0.23 µM; in the assay on HT29 colon it was 109 nM; with UO-31 renal, 271 nM; in the assay with MCF7 breast it was 125 nM; in the assay with IGROV1 ovarian it was 231 nM; in the assay with EKVX NSCLC, 0.197 µM. The GI50 in the assay with SK-MEL-5 melanoma is 123 nM; in the assay on NCI-H522 lung, 0.0814 µM; in the assay on SNB-19 CNS it was 0.159 µM; in the assay on TK-10 renal, 9.26 µM. Further, the TGI in the assay on ACHN renal was above 46.2 µM; in the assay on UO-31 renal, above 31.3 µM; with MCF7 breast it was above 58.4 µM; with IGROV1 ovarian, above 100 µM; in the assay with EKVX NSCLC it was above 100 µM; in the assay on SK-MEL-5 melanoma it was 0.47 µM. Moreover, the TGI in the assay with NCI-H522 lung was 1.85 µM; with SNB-19 CNS it was above 100 µM; in the assay on TK-10 renal it was above 95.1 µM.
On to `CN(C)c1ccc(/C=C/c2ccnc3ccccc23)cc1`, for which the GI50 was 5.58 µM in the assay with ACHN renal; 3180 nM with HT29 colon; 12100 nM with UO-31 renal; 922 nM with MCF7 breast; 5610 nM in the assay on IGROV1 ovarian; 3.19 µM in the assay on EKVX NSCLC. Besides, the GI50 was 2480 nM with SK-MEL-5 melanoma, 10.5 µM in the assay with NCI-H522 lung, 6.56 µM in the assay with SNB-19 CNS and 9.49 µM with TK-10 renal. Besides, the TGI is above 100 µM with ACHN renal; 84.3 µM and 11.8 µM with HT29 colon; above 100 µM in the assay with UO-31 renal; > 100 µM and 44.4 µM in the assay with MCF7 breast; above 100 µM with IGROV1 ovarian; > 100 µM and 30.2 µM in the assay with EKVX NSCLC. Besides, the TGI with SK-MEL-5 melanoma is > 100 µM and 11.7 µM; in the assay on NCI-H522 lung, above 100 µM; in the assay with SNB-19 CNS it was above 100 µM; with TK-10 renal, > 100 µM and 58.4 µM.
Regarding `CN(Cc1cnc2nc(N)nc(N)c2n1)c1ccc(C(=O)NC(CCC(=O)O)C(=O)O)cc1` (stereo not drawn), the GI50 with ACHN renal is 0.292 µM; with HT29 colon, 56.4 nM; in the assay on UO-31 renal it was 270 nM; with IGROV1 ovarian, 809 nM; in the assay on EKVX NSCLC it was 0.399 µM; with SK-MEL-5 melanoma, 443 nM. For the same compound, the results for the GI50 in the assay with NCI-H522 lung and in the assay with TK-10 renal were 0.721 µM and above 100 µM, respectively. The TGI with ACHN renal, in the assay with HT29 colon, in the assay on UO-31 renal, with MCF7 breast, in the assay with IGROV1 ovarian and in the assay on EKVX NSCLC was above 100 µM in each case. For the same compound, the TGI in the assay on SK-MEL-5 melanoma, in the assay on NCI-H522 lung, in the assay with SNB-19 CNS and with TK-10 renal was above 100 µM each time.
Take `CC1(C)OCN(c2ccc(Cl)cc2)Cn2c1nc1ccccc12`: the concentration for total growth inhibition (TGI) in the assay on ACHN renal was above 100 µM; in the assay on HT29 colon, above 100 µM; in the assay with UO-31 renal, 97.1 µM; in the assay on MCF7 breast, above 100 µM; with IGROV1 ovarian, above 26.7 µM; with EKVX NSCLC, above 100 µM. Moreover, the TGI in the assay with SK-MEL-5 melanoma is 5.39 µM; with NCI-H522 lung, above 100 µM; with SNB-19 CNS, above 100 µM; in the assay with TK-10 renal, above 100 µM.
As to `COC(=O)CCC1=C(C)c2cc3[n-]c(cc4nc(cc5[n-]c(cc1n2)c(CCC(=O)OC)c5C)C=C4C)cc3C.[Cd+2]`, the GI50 is 16.2 µM in the assay with ACHN renal; 6740 nM with HT29 colon; 21700 nM in the assay with UO-31 renal; 2660 nM in the assay on MCF7 breast; 3030 nM in the assay on IGROV1 ovarian; 5.89 µM with EKVX NSCLC. For the same compound, the GI50 with SK-MEL-5 melanoma was 1140 nM; in the assay on NCI-H522 lung, 0.265 µM; in the assay with SNB-19 CNS, 25.6 µM; with TK-10 renal it was 5.25 µM. Further, the concentration for total growth inhibition (TGI) in the assay with ACHN renal was 38.8 µM; in the assay on HT29 colon, 26.3 µM; in the assay on UO-31 renal, 65.7 µM; with MCF7 breast, 11.9 µM; in the assay on IGROV1 ovarian it was 8.82 µM; in the assay with EKVX NSCLC, above 52.2 µM. Moreover, the TGI with SK-MEL-5 melanoma was 2.83 µM; with NCI-H522 lung it was 0.754 µM; in the assay with SNB-19 CNS, above 100 µM; in the assay with TK-10 renal, 13.6 µM.
With `Cc1nc(NC(=O)N2CCC[C@H]2C(N)=O)sc1-c1ccnc(C(C)(C)C(F)(F)F)c1`, the GI50 is 5.6 µM and > 10 µM in the assay on ACHN renal; 488 nM and 477 nM in the assay with HT29 colon; 2480 nM and 2070 nM in the assay with UO-31 renal; 120 nM and 296 nM with MCF7 breast; 55.8 nM and 121 nM in the assay on IGROV1 ovarian; 4.53 µM with EKVX NSCLC. The GI50 with SK-MEL-5 melanoma was 11800 nM and > 10000 nM; in the assay with NCI-H522 lung, 6.41 µM and 8.17 µM; in the assay with SNB-19 CNS, 8.6 µM and > 10 µM; in the assay on TK-10 renal, 1.2 µM and 0.789 µM. In addition, the TGI with ACHN renal is above 100 µM; with HT29 colon, 20.8 µM and > 10 µM; in the assay with UO-31 renal, 36.7 µM and > 10 µM; with MCF7 breast, above 38.4 µM; in the assay with IGROV1 ovarian, 0.483 µM and 0.816 µM; in the assay with EKVX NSCLC, above 10 µM. For the same compound, the TGI is 24.6 µM and > 10 µM in the assay with SK-MEL-5 melanoma; 27.1 µM and > 10 µM in the assay on NCI-H522 lung; 66.2 µM and > 10 µM with SNB-19 CNS; 15.8 µM and > 10 µM in the assay with TK-10 renal.
As for `Cn1cnc([N+](=O)[O-])c1Sc1ncnc2c1ncn2C1OC(CO)C(O)C1O` (stereo not drawn), the GI50 is 25.7 µM in the assay with ACHN renal; 7300 nM in the assay on HT29 colon; 7100 nM with UO-31 renal; 1790 nM in the assay on MCF7 breast; 11400 nM with IGROV1 ovarian; 86.2 µM in the assay with EKVX NSCLC. Further, the GI50 was 11400 nM in the assay on SK-MEL-5 melanoma, 9.62 µM in the assay with NCI-H522 lung, above 100 µM with SNB-19 CNS and 4.58 µM with TK-10 renal. Further, the TGI with ACHN renal, in the assay on HT29 colon, with UO-31 renal, in the assay with MCF7 breast, with IGROV1 ovarian and in the assay with EKVX NSCLC was above 100 µM throughout. The TGI in the assay with SK-MEL-5 melanoma, in the assay with NCI-H522 lung, in the assay on SNB-19 CNS and in the assay with TK-10 renal was above 100 µM each time.
Turning to `Oc1ccc2ccccc2c1N=Nc1ccccc1`, the TGI in the assay with ACHN renal, in the assay with HT29 colon, in the assay with UO-31 renal, with MCF7 breast, in the assay with IGROV1 ovarian and in the assay with EKVX NSCLC was above 100 µM each time. For the same compound, the TGI with SK-MEL-5 melanoma, with NCI-H522 lung, in the assay with SNB-19 CNS and in the assay on TK-10 renal was above 100 µM in each case. The GI50 with EKVX NSCLC was 15.5 µM and > 62.4 µM.

Values taken from PubChem BioAssay (NCI).
